The target of this test is T1, histamine H3 receptor (Homo sapiens, UniProt Q9Y5N1).
T1 construct: expressed in transfected cells; host or cells: CHO K1 cells with pSwitch/pGene (GeneSwitch), clone 3H3, mifepristone-induced; membranes
Kind of test: Histamine H3 functional antagonist assay ([35S]-GTPγS, membranes). Format: biochemical. The settings on record: histamine at EC80, read-out: average pKi (pKb) at H3 (converted). Here is the method:
The histamine H3 cDNA is isolated from its holding vector, pcDNA3.1 TOPO (InVitrogen), by restriction digestion of plasmid DNA with the enzymes BamH1 and Not-1 and is ligated into the inducible expression vector pGene (InVitrogen) digested with the same enzymes. The GeneSwitch™ system (a system where in transgene expression is switched off in the absence of an inducer and switched on in the presence of an inducer) is performed as described in U.S. Pat. Nos. 5,364,791; 5,874,534; and 5,935,934. Ligated DNA is transformed into competent DH5α E. coli host bacterial cells and is plated onto Luria Broth (LB) agar containing Zeocin™ (an antibiotic which allows the selection of cells expressing the sh ble gene which is present on pGene and pSwitch) at 50 μgml^−1. Colonies containing the re-ligated plasmid are identified by restriction analysis. […]
10-14 days post selection, 10 nM Mifepristone (InVitrogen) is added to the culture medium to induce the expression of the receptor. […] Receptor bound antibody is detected by incubation of the cells for 60 min on ice with a goat anti rabbit antibody, conjugated with Alexa 488 fluorescence marker (Molecular Probes). Following two further washes with Sorting Medium, cells are filtered through a […] Filcon™ (BD Biosciences) and then are analysed on a FACS Vantage SE Flow Cytometer fitted with an Automatic Cell Deposition Unit. […]
(GTPγS resists hydrolysis and so accumulates on activated G proteins.)

T1 sequence (Q9Y5N1 whole entry, species assumed): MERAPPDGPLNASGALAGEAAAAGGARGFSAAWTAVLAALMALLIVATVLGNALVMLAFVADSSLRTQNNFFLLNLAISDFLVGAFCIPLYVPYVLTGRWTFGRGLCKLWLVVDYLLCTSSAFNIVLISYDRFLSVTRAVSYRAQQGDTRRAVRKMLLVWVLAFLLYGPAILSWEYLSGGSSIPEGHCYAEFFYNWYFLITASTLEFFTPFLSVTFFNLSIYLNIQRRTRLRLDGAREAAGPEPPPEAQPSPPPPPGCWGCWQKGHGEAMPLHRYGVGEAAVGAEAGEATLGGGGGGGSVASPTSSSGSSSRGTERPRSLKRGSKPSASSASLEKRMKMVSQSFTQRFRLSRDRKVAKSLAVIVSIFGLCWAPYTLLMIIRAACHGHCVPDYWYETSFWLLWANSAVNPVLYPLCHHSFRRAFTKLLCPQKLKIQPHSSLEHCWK

With `COCCC(=O)NCCN1CCC[C@@H]1Cn1nc(Cc2ccc(Cl)cc2)c2ccccc2c1=O.O=CO` [Example 35, N-[2-((2R)-2-{[4-[(4-Chlorophenyl)methyl]-1-oxo-2(1H)-phthalazinyl]methyl}-1-pyrrolidinyl)ethyl]-3-(methyloxy)propanamide, formate salt], the Ki was > 0.316 µM. With `Cl.O=C(CC(F)(F)F)NCCN1CCC[C@@H]1Cn1nc(Cc2ccc(Cl)cc2)c2ccccc2c1=O` [Example 36a, N-[2-((2R)-2-{[4-[(4-Chlorophenyl)methyl]-1-oxo-2(1H)-phthalazinyl]methyl}-1-pyrrolidinyl)ethyl]-3,3,3-trifluoropropanamide, hydrochloride] the figure was > 0.316 µM.
